In ChEMBL document CHEMBL4308907, “Pyrrolidinone-bearing methylated and halogenated benzenesulfonamides as inhibitors of carbonic anhydrases” (Bioorg Med Chem, 2019):

How the values were obtained:
Carbonic anhydrase 1 = Carbonic anhydrase 1 (Homo sapiens, UniProt P00915); assay: Binding affinity to recombinant human CA1 by DSF-based fluorescence thermal shift assay
Carbonic anhydrase 2 [1] = biological target: T1, Carbonic anhydrase 2 (Homo sapiens, UniProt P00918); assay: Binding affinity to recombinant human CA2 by DSF-based fluorescence thermal shift assay
Carbonic anhydrase 3 = Carbonic anhydrase 3 (Homo sapiens, UniProt P07451); assay: Binding affinity to recombinant N-terminal His6x-tagged human CA3 (4 to 260 residues) expressed in Escherichia coli BL21(DE3) by DSF-based fluorescence thermal shift assay
Carbonic anhydrase 4 = Carbonic anhydrase 4 (Homo sapiens, UniProt P22748); assay: Binding affinity to recombinant human CA4 by DSF-based fluorescence thermal shift assay
[2] = biological target: Carbonic anhydrase 5B, mitochondrial (Homo sapiens, UniProt Q9Y2D0); assay: Binding affinity to recombinant full length N-terminal His6x-tagged human CA5B expressed in Escherichia coli Rosetta 2 (DE3) by DSF-based fluorescence thermal shift assay
Carbonic anhydrase 6 = Carbonic anhydrase 6 (Homo sapiens, UniProt P23280); assay: Binding affinity to recombinant human CA6 by DSF-based fluorescence thermal shift assay
Carbonic anhydrase 7 = Carbonic anhydrase 7 (Homo sapiens, UniProt P43166); assay: Binding affinity to recombinant human CA7 by DSF-based fluorescence thermal shift assay
Carbonic anhydrase 9 = Carbonic anhydrase 9 (Homo sapiens, UniProt Q16790); assay: Binding affinity to recombinant human CA9 by DSF-based fluorescence thermal shift assay
Carbonic anhydrase 12 = Carbonic anhydrase 12 (Homo sapiens, UniProt O43570); assay: Binding affinity to recombinant human CA12 by DSF-based fluorescence thermal shift assay
Carbonic anhydrase 13 = Carbonic anhydrase 13 (Homo sapiens, UniProt Q8N1Q1); assay: Binding affinity to recombinant human CA13 by DSF-based fluorescence thermal shift assay
Carbonic anhydrase 2 [3] = biological target: T1, Carbonic anhydrase 2; assay: Binding affinity to recombinant human CA2 in pH 7 sodium phosphate buffer at 37 degC by isothermal titration calorimetry
[4] = biological target: Carbonic anhydrase 5A, mitochondrial (Homo sapiens, UniProt P35218); assay: Binding affinity to recombinant full length C-terminal His6x-tagged human CA5A expressed in Escherichia coli BL21(DE3) by DSF-based fluorescence thermal shift assay
Carbonic anhydrase 14 = Carbonic anhydrase 14 (Homo sapiens, UniProt Q9ULX7); assay: Binding affinity to recombinant N-terminal His6x-tagged human CA14 (20 to 280 residues) catalytic domain expressed in Escherichia coli Rosetta 2 (DE3) by DSF-based fluorescence thermal shift assay
Sequence of Carbonic anhydrase 14 (Q9ULX7 whole entry, the tested form may be a part): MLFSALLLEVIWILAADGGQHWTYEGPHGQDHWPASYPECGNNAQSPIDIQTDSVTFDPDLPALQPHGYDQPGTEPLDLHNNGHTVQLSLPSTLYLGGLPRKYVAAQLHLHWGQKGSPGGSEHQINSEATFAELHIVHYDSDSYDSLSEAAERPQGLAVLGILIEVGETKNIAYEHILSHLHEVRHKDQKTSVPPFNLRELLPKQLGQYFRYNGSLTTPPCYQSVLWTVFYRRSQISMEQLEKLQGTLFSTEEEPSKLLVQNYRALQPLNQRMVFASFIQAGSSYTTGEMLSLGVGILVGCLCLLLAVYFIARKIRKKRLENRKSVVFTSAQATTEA

Sequence of Carbonic anhydrase 6 (P23280 whole entry): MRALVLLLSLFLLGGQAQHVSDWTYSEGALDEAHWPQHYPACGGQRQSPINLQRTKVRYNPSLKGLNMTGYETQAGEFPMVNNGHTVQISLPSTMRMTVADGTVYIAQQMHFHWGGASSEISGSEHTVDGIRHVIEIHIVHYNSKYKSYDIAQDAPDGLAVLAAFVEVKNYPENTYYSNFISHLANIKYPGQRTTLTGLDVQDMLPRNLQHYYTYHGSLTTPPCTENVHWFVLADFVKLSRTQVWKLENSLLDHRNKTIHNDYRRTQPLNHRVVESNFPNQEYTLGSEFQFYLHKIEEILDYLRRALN
Sequence of Carbonic anhydrase 7 (P43166 whole entry): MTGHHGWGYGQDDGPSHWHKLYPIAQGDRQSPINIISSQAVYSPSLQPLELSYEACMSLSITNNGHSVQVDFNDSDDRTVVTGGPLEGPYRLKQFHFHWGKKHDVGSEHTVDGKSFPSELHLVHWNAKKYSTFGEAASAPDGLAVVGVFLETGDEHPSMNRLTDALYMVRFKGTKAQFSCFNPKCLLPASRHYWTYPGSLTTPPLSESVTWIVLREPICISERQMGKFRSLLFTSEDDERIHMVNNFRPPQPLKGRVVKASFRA
Sequence of Carbonic anhydrase 5B, mitochondrial (Q9Y2D0 whole entry): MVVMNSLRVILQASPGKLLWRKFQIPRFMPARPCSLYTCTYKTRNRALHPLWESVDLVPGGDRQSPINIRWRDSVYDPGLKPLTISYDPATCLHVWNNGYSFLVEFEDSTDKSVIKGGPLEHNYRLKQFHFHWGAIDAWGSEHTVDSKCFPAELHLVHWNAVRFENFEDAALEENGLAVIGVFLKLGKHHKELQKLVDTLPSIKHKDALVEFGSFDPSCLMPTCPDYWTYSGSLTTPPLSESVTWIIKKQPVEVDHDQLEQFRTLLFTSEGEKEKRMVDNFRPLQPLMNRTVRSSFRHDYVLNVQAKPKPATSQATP
Sequence of Carbonic anhydrase 12 (O43570 whole entry): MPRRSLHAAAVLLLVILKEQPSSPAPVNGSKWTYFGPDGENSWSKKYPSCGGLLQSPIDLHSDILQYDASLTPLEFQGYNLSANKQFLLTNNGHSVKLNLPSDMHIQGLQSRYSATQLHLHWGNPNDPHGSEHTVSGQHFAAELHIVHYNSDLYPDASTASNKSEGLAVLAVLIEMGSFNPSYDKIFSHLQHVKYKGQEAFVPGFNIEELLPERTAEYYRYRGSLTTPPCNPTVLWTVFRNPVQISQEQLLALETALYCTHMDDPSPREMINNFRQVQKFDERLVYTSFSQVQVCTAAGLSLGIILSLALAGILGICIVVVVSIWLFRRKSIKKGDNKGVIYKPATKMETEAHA
Sequence of Carbonic anhydrase 4 (P22748 whole entry): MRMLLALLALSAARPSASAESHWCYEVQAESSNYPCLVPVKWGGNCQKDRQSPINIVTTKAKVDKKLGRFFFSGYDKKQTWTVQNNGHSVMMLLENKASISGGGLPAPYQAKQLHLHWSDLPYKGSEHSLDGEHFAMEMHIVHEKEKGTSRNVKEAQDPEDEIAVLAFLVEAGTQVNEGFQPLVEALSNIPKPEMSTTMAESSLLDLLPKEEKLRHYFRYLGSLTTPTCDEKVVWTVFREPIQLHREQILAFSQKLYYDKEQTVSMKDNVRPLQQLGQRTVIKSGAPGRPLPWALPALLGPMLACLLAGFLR
Sequence of Carbonic anhydrase 1 (P00915 whole entry): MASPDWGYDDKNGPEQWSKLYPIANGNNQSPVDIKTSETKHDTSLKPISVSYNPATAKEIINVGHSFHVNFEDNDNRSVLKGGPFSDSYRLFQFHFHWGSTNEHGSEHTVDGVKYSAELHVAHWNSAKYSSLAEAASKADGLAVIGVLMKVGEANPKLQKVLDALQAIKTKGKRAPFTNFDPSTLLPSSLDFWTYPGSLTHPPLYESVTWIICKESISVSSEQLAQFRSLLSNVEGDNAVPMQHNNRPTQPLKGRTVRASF
Sequence of Carbonic anhydrase 5A, mitochondrial (P35218 whole entry, the tested form may be a part): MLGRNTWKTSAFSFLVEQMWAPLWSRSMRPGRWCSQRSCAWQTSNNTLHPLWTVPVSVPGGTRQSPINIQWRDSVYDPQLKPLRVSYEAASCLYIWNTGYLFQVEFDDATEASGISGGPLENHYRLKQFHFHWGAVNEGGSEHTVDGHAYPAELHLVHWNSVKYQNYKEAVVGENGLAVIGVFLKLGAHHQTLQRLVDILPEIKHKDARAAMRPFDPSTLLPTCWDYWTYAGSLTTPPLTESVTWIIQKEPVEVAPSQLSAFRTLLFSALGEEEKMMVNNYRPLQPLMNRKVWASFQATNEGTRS
Sequence of Carbonic anhydrase 3 (P07451 whole entry, the tested form may be a part): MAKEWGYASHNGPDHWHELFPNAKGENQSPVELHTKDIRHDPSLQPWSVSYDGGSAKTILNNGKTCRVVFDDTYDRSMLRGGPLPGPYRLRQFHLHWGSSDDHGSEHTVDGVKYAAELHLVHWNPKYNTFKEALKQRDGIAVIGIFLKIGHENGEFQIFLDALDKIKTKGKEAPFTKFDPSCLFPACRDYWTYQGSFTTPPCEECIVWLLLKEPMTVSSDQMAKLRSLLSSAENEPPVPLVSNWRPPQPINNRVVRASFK
Sequence of Carbonic anhydrase 13 (Q8N1Q1 whole entry): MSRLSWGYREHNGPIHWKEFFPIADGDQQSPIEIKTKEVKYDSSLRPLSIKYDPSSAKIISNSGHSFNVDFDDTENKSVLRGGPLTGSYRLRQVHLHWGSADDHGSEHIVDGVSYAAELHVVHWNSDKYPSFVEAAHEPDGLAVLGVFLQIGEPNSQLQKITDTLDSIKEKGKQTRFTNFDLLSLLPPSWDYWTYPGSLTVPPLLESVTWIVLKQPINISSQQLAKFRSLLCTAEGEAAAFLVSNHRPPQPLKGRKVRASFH

SMILES	Kd (Carbonic anhydrase 1)	Kd (Carbonic anhydrase 2 [1])	Kd (Carbonic anhydrase 3)	Kd (Carbonic anhydrase 4)	Kd [2]	Kd (Carbonic anhydrase 6)	Kd (Carbonic anhydrase 7)	Kd (Carbonic anhydrase 9)	Kd (Carbonic anhydrase 12)	Kd (Carbonic anhydrase 13)	Kd (Carbonic anhydrase 2 [3])	Kd [4]	Kd (Carbonic anhydrase 14)
NNC(=O)C1CC(=O)N(c2ccc(S(N)(=O)=O)cc2)C1 (stereo not drawn)	3300 nM	500 nM	≥ 200000 nM	2200 nM	10000 nM	10000 nM	670 nM	630 nM	4000 nM	7700 nM	–	50000 nM	910 nM
Cc1cc(S(N)(=O)=O)c(C)cc1N1CC(C(=O)N/N=C/c2ccccc2)CC1=O (stereo not drawn)	7100 nM	1300 nM	≥ 200000 nM	7600 nM	28 nM	9600 nM	1900 nM	1400 nM	9300 nM	420 nM	–	–	470 nM
COC(=O)C1CC(=O)N(c2ccc(S(N)(=O)=O)cc2)C1 (stereo not drawn)	1000 nM	150 nM	≥ 200000 nM	1500 nM	3300 nM	94 nM	130 nM	170 nM	4000 nM	1100 nM	–	–	96 nM
Cc1cc(S(N)(=O)=O)c(C)cc1N1CC(C(=O)O)CC1=O (stereo not drawn)	38000 nM	6400 nM	160000 nM	19000 nM	1100 nM	22000 nM	2700 nM	2600 nM	8100 nM	670 nM	–	–	3900 nM
NS(=O)(=O)c1ccc(N2CC(C(=O)O)CC2=O)cc1 (stereo not drawn)	4200 nM	500 nM	≥ 200000 nM	2500 nM	4700 nM	6700 nM	460 nM	330 nM	2000 nM	–	–	–	720 nM
Cc1cc(N2CC(C(=O)NN)CC2=O)c(Cl)c(C)c1S(N)(=O)=O (stereo not drawn)	2500 nM	140 nM	≥ 200000 nM	500 nM	140 nM	4800 nM	100 nM	330 nM	–	200 nM	–	–	40 nM
Cc1cc(N2CC(C(=O)N/N=C/c3ccc(Cl)cc3)CC2=O)cc(C)c1S(N)(=O)=O (stereo not drawn)	1700 nM	2000 nM	≥ 200000 nM	18000 nM	670 nM	14000 nM	≥ 200000 nM	3300 nM	≥ 200000 nM	≥ 200000 nM	–	–	–
Cc1cc(N2CC(c3n[nH]c(=S)n3-c3ccccc3)CC2=O)cc(C)c1S(N)(=O)=O (stereo not drawn)	2500 nM	2000 nM	≥ 200000 nM	7000 nM	770 nM	41000 nM	5400 nM	1400 nM	10000 nM	2000 nM	–	–	–
Cc1cc(N2CC(C(=O)O)CC2=O)cc(C)c1S(N)(=O)=O (stereo not drawn)	20000 nM	12000 nM	≥ 200000 nM	5900 nM	3300 nM	25000 nM	20000 nM	5000 nM	7700 nM	8300 nM	–	8300 nM	3200 nM
Cc1cc(N2CC(C(=O)N/N=C/c3ccc(Br)cc3)CC2=O)cc(C)c1S(N)(=O)=O (stereo not drawn)	2500 nM	2900 nM	≥ 200000 nM	20000 nM	630 nM	18000 nM	37000 nM	2500 nM	33000 nM	33000 nM	–	–	–
Cc1cc(N2CC(C(=O)N/N=C/c3ccccc3)CC2=O)c(Cl)c(C)c1S(N)(=O)=O (stereo not drawn)	560 nM	56 nM	≥ 200000 nM	770 nM	20 nM	1400 nM	33 nM	100 nM	770 nM	33 nM	–	–	12 nM
NS(=O)(=O)c1ccc(N2CC(C(=O)N/N=C/c3ccccc3)CC2=O)cc1 (stereo not drawn)	630 nM	170 nM	≥ 200000 nM	1300 nM	1300 nM	2000 nM	500 nM	59 nM	2500 nM	830 nM	–	1700 nM	200 nM
COC(=O)C1CC(=O)N(c2cc(C)c(S(N)(=O)=O)cc2C)C1 (stereo not drawn)	11000 nM	1600 nM	≥ 200000 nM	10000 nM	180 nM	29000 nM	31 nM	1600 nM	12000 nM	580 nM	–	–	840 nM
Cc1cc(N2CC(C(=O)O)CC2=O)cc(C)c1S(=O)(=O)Cl (stereo not drawn)	≥ 200000 nM	≥ 200000 nM	≥ 200000 nM	≥ 200000 nM	≥ 200000 nM	≥ 200000 nM	≥ 200000 nM	≥ 200000 nM	≥ 200000 nM	≥ 200000 nM	–	–	–
Cc1cc(N2CC(C(=O)N/N=C/c3ccccc3)CC2=O)cc(C)c1S(N)(=O)=O (stereo not drawn)	2200 nM	2200 nM	≥ 200000 nM	5000 nM	710 nM	25000 nM	30000 nM	2000 nM	29000 nM	22000 nM	–	2000 nM	2000 nM

Next, values leading:

Kd (Carbonic anhydrase 1)	Kd (Carbonic anhydrase 2 [1])	Kd (Carbonic anhydrase 3)	Kd (Carbonic anhydrase 4)	Kd [2]	Kd (Carbonic anhydrase 6)	Kd (Carbonic anhydrase 7)	Kd (Carbonic anhydrase 9)	Kd (Carbonic anhydrase 12)	Kd (Carbonic anhydrase 13)	Kd (Carbonic anhydrase 2 [3])	Kd [4]	Kd (Carbonic anhydrase 14)	SMILES
1500 nM	910 nM	≥ 200000 nM	6000 nM	500 nM	28000 nM	3300 nM	2000 nM	8300 nM	3700 nM	318 nM	–	–	Cc1cc(C)n(C(=O)C2CC(=O)N(c3cc(C)c(S(N)(=O)=O)c(C)c3)C2)n1 (stereo not drawn)
4300 nM	220 nM	110000 nM	360 nM	530 nM	6300 nM	56 nM	290 nM	1300 nM	220 nM	697 nM	–	–	Cc1cc(N2CC(C(=O)O)CC2=O)c(Cl)c(C)c1S(N)(=O)=O (stereo not drawn)
58000 nM	8100 nM	≥ 200000 nM	14000 nM	660 nM	24000 nM	4400 nM	9000 nM	21000 nM	2800 nM	–	–	4000 nM	Cc1cc(S(N)(=O)=O)c(C)cc1N1CC(C(=O)NN)CC1=O (stereo not drawn)
260 nM	88 nM	≥ 200000 nM	850 nM	550 nM	3600 nM	110 nM	53 nM	5600 nM	660 nM	–	–	–	NS(=O)(=O)c1ccc(NC(=O)C2CC(=O)N(c3ccccc3)C2)cc1 (stereo not drawn)
17000 nM	11000 nM	≥ 200000 nM	9100 nM	1400 nM	50000 nM	50000 nM	13000 nM	50000 nM	100000 nM	–	20000 nM	5000 nM	Cc1cc(N2CC(C(=O)NN)CC2=O)cc(C)c1S(N)(=O)=O (stereo not drawn)
≥ 200000 nM	≥ 200000 nM	≥ 200000 nM	≥ 200000 nM	≥ 200000 nM	≥ 200000 nM	≥ 200000 nM	≥ 200000 nM	≥ 200000 nM	≥ 200000 nM	–	–	–	Cc1cc(C)cc(N2CC(C(=O)O)CC2=O)c1 (stereo not drawn)
